Results taken from US7842488B2, “Polynucleotides encoding a human 3-phosphoinositide- dependent protein kinase” (Medical Research Council, priority 1997, dated 2010).

Assays:
[1] = system: PDK1; experiment: PDK1 assay: activation of GST-PKBα by purified PDK1 with phospholipid vesicles; assay type: biochemical, rabbit; conditions: for activation of PDK1 (in words) / fold-activation of GST-PKBα (PDK1 activity): lipid 10 μM in vesicles of 100 μM PtdCho, 100 μM PtdSer, 30 min at 30° C.; for order of level of activation of the 3-phosphoinositide-dependent kinase (most effective first): rabbit skeletal muscle PDK1, FIG. 6; for activation and phosphorylation of GST-PKBα by PDK1 in the presence of Triton X-100: 0.5% (by vol) in the assay
Experimental: (§1) Assay of PDK1. The assay was carried out in two stages; in the first, GST-PKBα was incubated with PDK1 in the presence of MgATP and phospholipid vesicles to permit activation of GST-PKBα.
(§2) After 10 min at 30° C., the reactions were terminated by spotting the reaction mixture on to p81 phosphocellulose paper. The papers were washed in phosphoric acid and analysed as described previously. […] The basal GST-PKBα activity is the activity measured in the absence of PDK1.

[2] = system: PDK1; experiment: Phosphorylation of GST-PKBα by PDK1 with [γ32P]ATP; assay type: biochemical, rabbit; conditions: lipid 10 μM in PtdCho/PtdSer vesicles
Experimental: Solutions were stored at 4° C. at concentrations 10-fold higher than those required in the assay and used within 2-4 days.
(§3) Phosphorylation of GST-PKB ? by PDK1. The incubations were identical to the Stage 1 described above except that [γ^32P] ATP (200-400 cpm/pmol) was used instead of unlabelled ATP. The reactions were terminated by making the solution 1% (by mass) in SDS. […] The Coomassie blue-staining bands corresponding to GST-PKBα were excised and the ^32P-radioactivity associated with each band was quantified.

[3] = target: T1, GST-PKBα (Homo sapiens, UniProt P31749); experiment: Activity of PDK1 preparations towards GST-PKBα; assay type: biochemical; conditions: for phosphorylation of GST-PKBα: PtdIns(3,4,5)P3 lipids, high enzyme concentration; for specific activity towards GST-PKBα: in the presence of PtdIns(3,4,5)P3; for fold increase in GST-PKBα activity: in the presence of PtdIns(3,4,5)P3 vesicles
T1 construct: generate a full length cDNA encoding the PKBα gene; made in house; host or cells: human embryonic kidney 293 cells (pEBG2T), serum starved
Experimental: as §1, §2, §3

T1 sequence (P31749 whole entry): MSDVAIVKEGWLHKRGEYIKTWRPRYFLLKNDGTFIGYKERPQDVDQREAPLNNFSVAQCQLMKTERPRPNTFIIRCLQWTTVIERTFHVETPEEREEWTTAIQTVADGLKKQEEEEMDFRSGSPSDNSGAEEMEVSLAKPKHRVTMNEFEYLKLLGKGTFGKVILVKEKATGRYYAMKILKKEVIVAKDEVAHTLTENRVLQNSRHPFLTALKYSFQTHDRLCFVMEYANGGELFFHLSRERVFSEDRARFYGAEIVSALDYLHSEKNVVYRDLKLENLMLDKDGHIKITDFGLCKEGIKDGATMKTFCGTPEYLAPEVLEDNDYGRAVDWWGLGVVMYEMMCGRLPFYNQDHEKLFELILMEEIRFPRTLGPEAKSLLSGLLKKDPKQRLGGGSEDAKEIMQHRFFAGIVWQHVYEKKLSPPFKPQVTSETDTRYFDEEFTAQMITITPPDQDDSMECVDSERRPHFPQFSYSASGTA

Molecule: CCCCCCCCCCCCCCCC(=O)OC[C@H](COP(=O)(O)OC1C(O)C(OP(=O)(O)O)C(O)C(OP(=O)(O)O)C1O)OC(=O)CCCCCCCCCCCCCCC (some centres unmarked) [Lipid 8, sn-1,2 di-palmitoyl PtdIns(3,5)P2]
- activation of PDK1 (in words) [1]: no significant activation
- activation of PDK1 (in words) ([1]; listed as PtdIns(3,5)P2): did not activate PDK1 at all
- activation of PDK1 (in words) ([1]; listed as lipid 8): did not activate PDK1
- phosphorylation of GST-PKBα by PDK1 (in words) [2]: did not activate PDK1 or induce the phosphorylation

Molecule: CCCCC/C=C\C/C=C\CCCCCCCC(=O)OCC(COP(=O)(O)OC1C(O)C(OP(=O)(O)O)C(OP(=O)(O)O)C(OP(=O)(O)O)C1O)OC(=O)CCCCCCC/C=C\C/C=C\CCCCC (racemic) [Lipid 5, Racemic sn-1,2-dilinoleoyl PtdIns(3,4,5)P3]
- fold-activation of GST-PKBα (PDK1 activity) [1]: 36 fold
- order of level of activation of the 3-phosphoinositide-dependent kinase (most effective first) [1]: 1

Molecule: Triton X-100
- activation and phosphorylation of GST-PKBα by PDK1 in the presence of Triton X-100 ([1]; listed as Triton X100): completely inhibits
- activation and phosphorylation of GST-PKBα by PDK1 in the presence of Triton X-100 ([1]; listed as Triton-X100): prevented

Molecule: GST-PDK1: residues 52-556 of human PDK1 expressed in 293 cells as fusion with glutathione S-transferase
- phosphorylation of GST-PKBα [3]: 0.75 mol phosphate per mol protein
- specific activity towards GST-PKBα [3]: 78 000 U/mg
- fold increase in GST-PKBα activity [3]: 35 fold

Molecule: CCCCC/C=C\C/C=C\C/C=C\C/C=C\CCCC(=O)OC(COC(=O)CCCCCCCCCCCCCCCCC)COP(=O)(O)OC1C(O)C(OP(=O)(O)O)C(OP(=O)(O)O)C(OP(=O)(O)O)C1O (single isomer, unassigned) [Lipid 4, L-enantiomer of sn-2-arachidonyl-3-stearoyl PtdIns(3,4,5)P3]
- activation of PDK1 (in words) [1]: no significant activation
- fold-activation of GST-PKBα (PDK1 activity) ([1]; 3-stearoyl L-PtdIns(3,4,5)P3): 2.3 fold
- activation of PDK1 (in words) ([1]; listed as L-enantiomer of sn-2-arachidonyl-3-stearoyl PtdIns(3,4,5)P3): almost ineffective

Molecule: CCCCC/C=C\C/C=C\C/C=C\C/C=C\CCCC(=O)OC(COC(=O)CCCCCCCCCCCCCCCCC)COP(=O)(O)OC1C(O)C(OP(=O)(O)O)C(OP(=O)(O)O)C(OP(=O)(O)O)C1O (single isomer, unassigned) [Lipid 3, D-enantiomer of sn-2-arachidonyl-3-stearoyl PtdIns(3,4,5)P3]
- fold-activation of GST-PKBα (PDK1 activity) ([1]; 3-stearoyl D-PtdIns(3,4,5)P3): 16 fold
- activation of PDK1 (in words) ([1]; listed as D-enantiomer of sn-2-arachidonyl-3-stearoyl PtdIns(3,4,5)P3): potently activated PDK1
- order of level of activation of the 3-phosphoinositide-dependent kinase (most effective first) [1]: 2

Molecule: protein tyrosine phosphatase 1B: protein tyrosine phosphatase 1B
- PDK1 activity after treatment with phosphatase ([1]; high concentrations of phosphatase): no effect on activity

Molecule: CCCCCCCCCCCCCCCC(=O)OCC(COP(=O)(O)OC1C(O)C(OP(=O)(O)O)C(OP(=O)(O)O)C(OP(=O)(O)O)C1O)OC(=O)CCCCCCCCCCCCCCC (centres unmarked) [Lipid 6, sn-1,2 di-palmitoyl PtdIns(3,4,5)P3]
- fold less effective in activating PDK1 than the sn-1-stearoyl-2-arachidonyl and sn-2-arachidonyl-3-stearoyl derivatives [1]: ~3 fold
- fold-activation of GST-PKBα (PDK1 activity) [1]: about 6 fold
- fold-activation of GST-PKBα (PDK1 activity) ([1]; listed as sn-1,2-dipalmitoyl D-PtdIns(3,4,5)P3): 5.5 fold
- order of level of activation of the 3-phosphoinositide-dependent kinase (most effective first) [1]: 4

Molecule: O=P(O)(O)O[C@H]1[C@H](O)[C@@H](OP(=O)(O)O)[C@H](OP(=O)(O)O)[C@@H](OP(=O)(O)O)[C@H]1O [IP4, inositol 1,3,4,5-tetrakisphosphate]
- activation of PDK1 (in words) [1]: no significant activation
- activation of PDK1 (in words) ([1]; listed as Ins(1,3,4,5)P4): did not activate PDK1
- activation of PDK1 (in words) ([1]; listed as inositol 1,3,4,5-tetrakisphosphate): did not activate PDK1 at all
- phosphorylation of GST-PKBα by PDK1 (in words) [2]: did not activate PDK1 or induce the phosphorylation

Molecule: PtdIns 4P [Lipid 10]
- activation of PDK1 (in words) [1]: no significant activation
- activation of PDK1 (in words) ([1]; listed as PtdIns(4)P): did not activate PDK1 at all
- activation of PDK1 (in words) ([1]; listed as lipid 10): did not activate PDK1
- phosphorylation of GST-PKBα by PDK1 (in words) [2]: did not activate PDK1 or induce the phosphorylation

B1: GST-DSTPK61: residues 1-752 of Drosophila DSTPK61 expressed in E. coli as GST fusion (protein)
chain: MKCKSWSNKINNYVVRKIKSIKINGTQQQLQLPGSGASGIAAAAVITVASDCGENCSSNGTEHQQHFNIATTTATSATEATMPAMAKEKASATVSLGESNFRDINLKDLAVVVEAASRLHHQQNVCGCGAVSSTENNNNSRYGSSKYLTNGHTSPLAAAVASNSSSVATTPHCRMLHNCSLQQYQNDIRQQTEILDMLRQQHQQGYQSQQQQQQPQQQQEQQQQQEQSQQQQQLQNPAPRRSPNDFIFGRYIGEGSYSIVYLAVDIHSRREYAIKVCEKRLILRERKQDYIKREREVMHQMTNVPGFVNLSCTFQDQRSLYFVMTYARKGDMLPYINRVGSFDVACTRHYAAELLLACEHMHRRNVVHRDLKPENILLDEDMHTLIADFGSAKVMTAHERALATEHCSEQRRSNSDEDDEDSDRLENEDEDFYDRDSEELDDGDDEQQQEEMDSPRHRQRRYNRHRKASFVGTAQYVSPEVLQNGPITPAADLWALGCIVYQMIAGLPPFRGSNDYVIFKEILDCAVDFPQGFDKDAEDLVRKLLRVDPRDRLGAQDEFGYYESIRAHPFFAGIDWQTLRQQTPPPIYPYLPGVSQDEDFRSSYTVPGDLEPGLDERQISRLLSAELGVGSSVAMPVKRSTAKNSFDLNDAEKLQRLEQQKTDKWHVFADGEVILKKGFVNKRKGLFARKRMLLLTTGPRLIYIDPVQMIKKGEIPWSPDLRAEYKNFKIFFVHTPNRTYYLDDPEGYAIHW
modifications: left off: a dimerising Fc or GST
notes: residues 1-752 of Drosophila DSTPK61 expressed in E. coli as GST fusion
- phosphorylation of GST-PKBα [3]: 0.75 mol phosphate per mol protein
- specific activity towards GST-PKBα [3]: 280 U/mg
- fold increase in GST-PKBα activity [3]: 35 fold

B2: GST-ΔPH-PDK1: PDK1 mutant lacking the putative C-terminal PH domain, residues 1-450, GST fusion (protein, UniProt O15530 1-450, looked up, fragment)
chain: MARTTSQLYDAVPIQSSVVLCSCPSPSMVRTQTESSTPPGIPGGSRQGPAMDGTAAEPRPGAGSLQHAQPPPQPRKKRPEDFKFGKILGEGSFSTVVLARELATSREYAIKILEKRHIIKENKVPYVTRERDVMSRLDHPFFVKLYFTFQDDEKLYFGLSYAKNGELLKYIRKIGSFDETCTRFYTAEIVSALEYLHGKGIIHRDLKPENILLNEDMHIQITDFGTAKVLSPESKQARANSFVGTAQYVSPELLTEKSACKSSDLWALGCIIYQLVAGLPPFRAGNEYLIFQKIIKLEYDFPEKFFPKARDLVEKLLVLDATKRLGCEEMEGYGPLKAHPFFESVTWENLHQQTPPKLTAYLPAMSEDDEDCYGNYDNLLSQFGCMQVSSSSSSHSLSASDTGLPQRSGSNIEQYIHDLDSNSFELDLQFSEDEKRLLLEKQAGGNPWHQ
modifications: GST fusion tag
notes: PDK1 mutant lacking the putative C-terminal PH domain, residues 1-450, GST fusion
- fold reduction of the rate of activation of GST-PKBα compared to full length wild-type GST-PDK1 ([3]; PtdIns(3,4,5)P3 present): about 30 fold

B3: GST-D223A-PDK1: catalytically inactive GST-PDK1 mutant in which Asp223 was changed to Ala (protein, UniProt O15530 1-556, looked up, variant D223A)
3-phosphoinositide-dependent …: MARTTSQLYDAVPIQSSVVLCSCPSPSMVRTQTESSTPPGIPGGSRQGPAMDGTAAEPRPGAGSLQHAQPPPQPRKKRPEDFKFGKILGEGSFSTVVLARELATSREYAIKILEKRHIIKENKVPYVTRERDVMSRLDHPFFVKLYFTFQDDEKLYFGLSYAKNGELLKYIRKIGSFDETCTRFYTAEIVSALEYLHGKGIIHRDLKPENILLNEDMHIQITAFGTAKVLSPESKQARANSFVGTAQYVSPELLTEKSACKSSDLWALGCIIYQLVAGLPPFRAGNEYLIFQKIIKLEYDFPEKFFPKARDLVEKLLVLDATKRLGCEEMEGYGPLKAHPFFESVTWENLHQQTPPKLTAYLPAMSEDDEDCYGNYDNLLSQFGCMQVSSSSSSHSLSASDTGLPQRSGSNIEQYIHDLDSNSFELDLQFSEDEKRLLLEKQAGGNPWHQFVENNLILKMGPVDKRKGLFARRRQLLLTEGPHLYYVDPVNKVLKGEIPWSQELRPEAKNFKTFFVHTPNRTYYLMDPSGNAHKWCRKIQEVWRQRYQSHPDAAVQ
modifications: GST fusion tag
- phosphorylation and activation of GST-PKBα (in words) ([3]; PtdCho/PtdSer lipid vesicles containing PtdIns(3,4,5)P3): did not phosphorylate or active GST-PKBα
